Reference: patent US11083196B2, “Microbiocidal oxadiazole derivatives” (SYNGENTA PARTICIPATIONS AG, priority 2016, dated 2021)

Experiments:
[1] = tested on: Puccinia recondita f. sp. tritici; test: Fungicidal activity against Puccinia recondita f. sp. tritici / wheat / leaf disc preventative (brown rust); type: in vivo; settings: foliar, 168 h, wheat leaf segments cv. Kanzler, inoculated 1 day after application, assessed 7-9 days after application, compared to untreated control
Method: Leaf disks or leaf segments of various plant species are cut from plants grown in a greenhouse. The cut leaf disks or segments are placed in multiwell plates (24-well format) onto water agar. The leaf disks are sprayed with a test solution before (preventative) or after (curative) inoculation. Compounds to be tested are prepared as DMSO solutions (max. 10 mg/ml) which are diluted to the appropriate concentration with 0.025% Tween20 just before spraying. The inoculated leaf disks or segments are incubated under defined conditions (temperature, relative humidity, light, etc.) according to the respective test system. A single evaluation of disease level is carried out 3 to 14 days after inoculation, depending on the pathosystem. Percent disease control relative to the untreated check leaf disks or segments is then calculated. Wheat leaf segments cv. Kanzler are placed on agar in multiwell plates (24-well format) and sprayed with the formulated test compound diluted in water. The leaf disks are inoculated with a spore suspension of the fungus 1 day after application. The inoculated leaf segments are incubated at 19° C. and 75% rh under a light regime of 12 h light/12 h darkness in a climate cabinet and the activity of a compound is assessed as percent disease control compared to untreated when an appropriate level of disease damage appears in untreated check leaf segments (7-9 days after application).

[2] = tested on: Glomerella lagenarium (Colletotrichum lagenarium); test: Fungicidal activity against Glomerella lagenarium (Colletotrichum lagenarium), liquid culture / cucumber / preventative (anthracnose); type: cell-based; settings: Colletotrichum orbiculare, liquid culture (PDB), growth inhibition measured photometrically 3-4 days after application, compared to untreated control
Method: Mycelia fragments or conidia suspensions of a fungus, prepared either freshly from liquid cultures of the fungus or from cryogenic storage, are directly mixed into nutrient broth. DMSO solutions of the test compound (max. 10 mg/ml) is diluted with 0.025% Tween20 by a factor of 50 and 10 μl of this solution is pipetted into a microtiter plate (96-well format). The nutrient broth containing the fungal spores/mycelia fragments is then added to give an end concentration of the tested compound. The test plates are incubated in the dark at 24° C. and 96% relative humidity. The inhibition of fungal growth is determined photometrically after 2 to 7 days, depending on the pathosystem, and percent antifungal activity relative to the untreated check is calculated. Conidia of the fungus from cryogenic storage are directly mixed into nutrient broth (PDB potato dextrose broth). After placing a (DMSO) solution of test compound into a microtiter plate (96-well format), the nutrient broth containing the fungal spores is added. The test plates are incubated at 24° C. and the inhibition of growth is measured photometrically 3-4 days after application.

[3] = tested on: Puccinia recondita f. sp. tritici; test: Fungicidal activity against Puccinia recondita f. sp. tritici / wheat / leaf disc curative (brown rust); type: in vivo; settings: foliar, 144 h, wheat leaf segments cv. Kanzler, applied 1 day after inoculation, assessed 6-8 days after application, compared to untreated control
Method: Leaf disks or leaf segments of various plant species are cut from plants grown in a greenhouse. The cut leaf disks or segments are placed in multiwell plates (24-well format) onto water agar. The leaf disks are sprayed with a test solution before (preventative) or after (curative) inoculation. Compounds to be tested are prepared as DMSO solutions (max. 10 mg/ml) which are diluted to the appropriate concentration with 0.025% Tween20 just before spraying. The inoculated leaf disks or segments are incubated under defined conditions (temperature, relative humidity, light, etc.) according to the respective test system. A single evaluation of disease level is carried out 3 to 14 days after inoculation, depending on the pathosystem. Percent disease control relative to the untreated check leaf disks or segments is then calculated. Wheat leaf segments cv. Kanzler are placed on agar in multiwell plates (24-well format). The leaf segments are inoculated with a spore suspension of the fungus. Plates are stored in darkness at 19° C. and 75% rh. The formulated test compound diluted in water is applied 1 day after inoculation. The leaf segments are incubated at 19° C. and 75% rh under a light regime of 12 h light/12 h darkness in a climate cabinet and the activity of a compound is assessed as percent disease control compared to untreated when an appropriate level of disease damage appears in untreated check leaf segments (6-8 days after application).

Structure (SMILES) | pest or weed control at 200 ppm [1] | melting point | inhibition of growth at 20 ppm [2] | pest or weed control at 200 ppm [3]
CC1(C)COC(c2ccc(-c3noc(C(F)(F)F)n3)cc2)=N1 [Compound A-2, 3-[4-(4,4-dimethyl-5H-oxazol-2-yl)phenyl]-5-(trifluoromethyl)-1,2,4-oxadiazole] | ≥ 80% | 70 to 75 °C | ≥ 80% | ≥ 80%
COC(=O)C1CC(c2ccc(-c3noc(C(F)(F)F)n3)cc2)=NO1 (stereo not shown) [Compound A-8, methyl 3-[4-[5-(trifluoromethyl)-1,2,4-oxadiazol-3-yl]phenyl]-4,5-dihydroisoxazole-5-carboxylate] | ≥ 80% |  | ≥ 80% | 
CC1(C)CC(=O)NC(c2ccc(-c3noc(C(F)(F)F)n3)cc2)O1 (stereo not shown) [Compound A-11, 6,6-dimethyl-2-[4-[5-(trifluoromethyl)-1,2,4-oxadiazol-3-yl]phenyl]-1,3-oxazinan-4-one] | ≥ 80% |  | ≥ 80% | ≥ 80%
CC1=NOC(C)(c2ccc(-c3noc(C(F)(F)F)n3)cc2)C1 (stereo not shown) [Compound A-13, 3-[4-(3,5-dimethyl-4H-isoxazol-5-yl)phenyl]-5-(trifluoromethyl)-1,2,4-oxadiazole] | ≥ 80% |  | ≥ 80% | ≥ 80%
O=C(NC1CSC(c2ccc(-c3noc(C(F)(F)F)n3)c(F)c2)=N1)C1CC1 (stereo not shown) [Compound A-22, N-[2-[3-fluoro-4-[5-(trifluoromethyl)-1,2,4-oxadiazol-3-yl]phenyl]-4,5-dihydrothiazol-4-yl]cyclopropanecarboxamide] |  |  | ≥ 80% | ≥ 80%
Cc1ccccc1C(=O)NC1CSC(c2ccc(-c3noc(C(F)(F)F)n3)c(F)c2)=N1 (stereo not shown) [Compound A-23, N-[2-[3-fluoro-4-[5-(trifluoromethyl)-1,2,4-oxadiazol-3-yl]phenyl]-4,5-dihydrothiazol-4-yl]-2-methyl-benzamids] | ≥ 80% | 144 to 155 °C | ≥ 80% | 
CN(C)C(=O)C(=O)NC1CSC(c2ccc(-c3noc(C(F)(F)F)n3)c(F)c2)=N1 (stereo not shown) [Compound A-24, N-[2-[3-fluoro-4-[5-(trifluoromethyl)-1,2,4-oxadiazol-3-yl]phenyl]-4,5-dihydrothiazol-4-yl]-N′,N′-dimethyl-oxamide] | ≥ 80% | 120 to 165 °C | ≥ 80% | ≥ 80%
COCC(=O)NC1CSC(c2ccc(-c3noc(C(F)(F)F)n3)c(F)c2)=N1 (stereo not shown) [Compound A-25, N-[2-[3-fluoro-4-[5-(trifluoromethyl)-1,2,4-oxadiazol-3-yl]phenyl]-4,5-dihydrothiazol-4-yl]-2-methoxy-acetamide] | ≥ 80% | 141 to 175 °C | ≥ 80% | 
CC(C)(C)[S+]([O-])NC1CSC(c2ccc(-c3noc(C(F)(F)F)n3)c(F)c2)=N1 (stereo not shown) [Compound A-26, N-[2-[3-fluoro-4-[5-(trifluoromethyl)-1,2,4-oxadiazol-3-yl]phenyl]-4,5-dihydro-thiazol-4-yl]-2-methyl-propane-2-sulfinamide] | ≥ 80% |  | ≥ 80% | ≥ 80%
CS(=O)(=O)N1CCCC1c1ccc(-c2noc(C(F)(F)F)n2)cc1 (stereo not shown) [Compound A-30, 3-[4-(1-methylsulfonyl-pyrrolidin-2-yl)phenyl]-5-(trifluoromethyl)-1,2,4-oxadiazole] | ≥ 80% | 117.7 to 118.6 °C | ≥ 80% | ≥ 80%
CON(C)C(=O)N1CCCC1c1ccc(-c2noc(C(F)(F)F)n2)cc1 (stereo not shown) [Compound A-31, N-methoxy-N-methyl-2-[4-[5-(trifluoromethyl)-1,2,4-oxadiazol-3-yl]phenyl]pyrrolidine-1-carboxamide] | ≥ 80% |  | ≥ 80% | ≥ 80%
COC(=O)N1CCCC1c1ccc(-c2noc(C(F)(F)F)n2)cc1 (stereo not shown) [Compound A-32, methyl 2-[4-[5-(trifluoromethyl)-1,2,4-oxadiazol-3-yl]phenyl]pyrrolidine-1-carboxylate] |  |  | ≥ 80% | ≥ 80%
COCC(=O)N1CCCC1c1ccc(-c2noc(C(F)(F)F)n2)cc1 (stereo not shown) [Compound A-33, 2-methoxy-1-[2-[4-[5-(trifluoromethyl)-1,2,4-oxadiazol-3-yl]phenyl]pyrrolidin-1-yl]ethanone] | ≥ 80% |  | ≥ 80% | ≥ 80%
O=C(N1CCCC1c1ccc(-c2noc(C(F)(F)F)n2)cc1)n1ccnc1 (stereo not shown) [Compound A-35, imidazol-1-yl-[2-[4-[5-(trifluoromethyl)-1,2,4-oxadiazol-3-yl]phenyl]pyrrolidin-1-yl]methanone] | ≥ 80% |  | ≥ 80% | ≥ 80%
CCC(=O)N1CCCC1c1ccc(-c2noc(C(F)(F)F)n2)cc1 (stereo not shown) [Compound A-37, 1-[2-[4-[5-(trifluoromethyl)-1,2,4-oxadiazol-3-yl]phenyl]pyrrolidin-1-yl]propan-1-one] |  |  | ≥ 80% | ≥ 80%
CC(=O)N1CCCC1c1ccc(-c2noc(C(F)(F)F)n2)cc1 (stereo not shown) [Compound A-38, 1-[2-[4-[5-(trifluoromethyl)-1,2,4-oxadiazol-3-yl]phenyl]pyrrolidin-1-yl]ethanone] | ≥ 80% |  | ≥ 80% | ≥ 80%
FC(F)(F)c1nc(-c2ccc(-c3ncco3)cc2)no1 [Compound C-3, 3-(4-oxazol-2-ylphenyl)-5-(trifluoromethyl)-1,2,4-oxadiazole] | ≥ 80% | 94 to 97 °C |  | ≥ 80%
Cc1csc(-c2ccc(-c3noc(C(F)(F)F)n3)cc2)n1 [Compound C-8, 3-[4-(4-methylthiazol-2-yl)phenyl]-5-(trifluoromethyl)-1,2,4-oxadiazole] |  | 89 to 90 °C | ≥ 80% | ≥ 80%
FC(F)(F)c1nc(-c2ccc(-c3nc(CCl)cs3)cc2)no1 [Compound C-9, 3-[4-[4-(chloromethyl)thiazol-2-yl]phenyl]-5-(trifluoromethyl)-1,2,4-oxadiazole] | ≥ 80% | 91 to 92 °C | ≥ 80% | 
Cc1cc(-c2ccc(-c3noc(C(F)(F)F)n3)cc2)on1 [Compound C-11, 3-[4-(3-methylisoxazol-5-yl)phenyl]-5-(trifluoromethyl)-1,2,4-oxadiazole] | ≥ 80% |  |  | ≥ 80%
Nc1cccc(-c2ccc(-c3noc(C(F)(F)F)n3)cc2)n1 [Compound D-15, 6-[4-[5-(trifluoromethyl)-1,2,4-oxadiazol-3-yl]phenyl]pyridin-2-amine] | ≥ 80% | 135 to 140 °C | ≥ 80% | 
O=C(Nc1cc(-c2ccc(-c3noc(C(F)(F)F)n3)cc2)ccn1)C(F)(F)F [Compound D-19, 2,2,2-trifluoro-N-[4-[4-[5-(trifluoromethyl)-1,2,4-oxadiazol-3-yl]phenyl]-2-pyridyl]acetamide] | ≥ 80% | 230 to 235 °C | ≥ 80% | 
